The target of this test is SARS-CoV-2 3CL-protease (Severe acute respiratory syndrome coronavirus 2, UniProt P0DTD1). Description: SARS-CoV-2 3C-like (3CL) protease fluorescence assay (FRET). It is filed as biochemical. The settings on record: recombinant SARS-CoV-2 3CL-protease 10 nM, TAMRA-[…]-Dabcyl-OH substrate, 30 min preincubation at RT, run in duplicate.
Experimental: SARS-CoV-2 3C-like (3CL) protease fluorescence assay (FRET): Recombinant SARS-CoV-2 3CL-protease was expressed and purified. […] Black, low volume, round-bottom, 384 well microplates were used. In a typical assay, 0.85 μL of test compound was dissolved in DMSO then incubated with SARS-CoV-2 3CL-protease (10 nM) in 10 μL assay buffer (50 mM HEPES [pH 7.5], 1 mM DTT, 0.01% BSA, 0.01% Triton-X 100) for 30 min at RT. Next, 10 μL of 3CL-protease substrate (40 μM) in assay buffer was added and the assays were monitored continuously for 1 h in an Envision multimode plate reader operating in fluorescence kinetics mode with excitation at 540 nm and emission at 580 nm at RT. No compound (DMSO only) and no enzyme controls were routinely included in each plate. All experiments were run in duplicate.
Data were fitted to normalized activity (variable slope) versus concentration fit in GraphPad Prism 7 to determine IC50.
Consider `CC(C)C[C@H](NC(=O)c1cc2ccccc2[nH]1)C(=O)N[C@H](C#N)C[C@@H]1CCNC1=O` [Example 2, N—((S)-1-(((S)-1-cyano-2-((S)-2-oxopyrrolidin-3-yl)ethyl)amino)-4-methyl-1-oxopentan-2-yl)-1H-indole-2-carboxamide], for which the IC50 lay in the range of 100 to 1000 nM.
For the compound `COc1cccc2[nH]c(C(=O)N[C@@H](Cc3ccccc3)C(=O)N[C@H](C#N)C[C@@H]3CCNC3=O)cc12` [Example 3, N—((S)-1-(((S)-1-cyano-2-((S)-2-oxopyrrolidin-3-yl)ethyl)amino)-1-oxo-3-phenylpropan-2-yl)-4-methoxy-1H-indole-2-carboxamide], the concentration for half-maximal inhibition (IC50) is 100 to 1000 nM.
As for `COc1cccc2[nH]c(C(=O)N[C@H](C(=O)N[C@H](C#N)C[C@@H]3CCNC3=O)c3ccccc3)cc12` [Example 5, N—((S)-2-(((S)-1-cyano-2-((S)-2-oxopyrrolidin-3-yl)ethyl)amino)-2-oxo-1-phenylethyl)-4-methoxy-1H-indole-2-carboxamide], the IC50 is more than 1000 nM.
For `COc1cccc2[nH]c(C(=O)N[C@H](C(=O)N[C@H](C#N)C[C@@H]3CCNC3=O)C3CCCCC3)cc12` [Example 6, N—((S)-2-(((S)-1-cyano-2-((S)-2-oxopyrrolidin-3-yl)ethyl)amino)-1-cyclohexyl-2-oxoethyl)-4-methoxy-1H-indole-2-carboxamide], the IC50 was more than 1000 nM.
As for `COc1cccc2[nH]c(C(=O)N[C@H](C(=O)N[C@H](C#N)C[C@@H]3CCNC3=O)C(C)C)cc12` [Example 7, N—((S)-1-(((S)-1-cyano-2-((S)-2-oxopyrrolidin-3-yl)ethyl)amino)-3-methyl-1-oxobutan-2-yl)-4-methoxy-1H-indole-2-carboxamide], the IC50 was more than 1000 nM.
The same measure for `COc1cccc2[nH]c(C(=O)N[C@@H](CCc3ccccc3)C(=O)N[C@H](C#N)C[C@@H]3CCNC3=O)cc12` [Example 8, N—((S)-1-(((S)-1-cyano-2-((S)-2-oxopyrrolidin-3-yl)ethyl)amino)-1-oxo-4-phenylbutan-2-yl)-4-methoxy-1H-indole-2-carboxamide]: 100 to 1000 nM; for `COc1cccc2[nH]c(C(=O)N[C@@H](CC3CCCC3)C(=O)N[C@H](C#N)C[C@@H]3CCNC3=O)cc12` [Example 10, N—((S)-1-(((S)-1-cyano-2-((S)-2-oxopyrrolidin-3-yl)ethyl)amino)-3-cyclopentyl-1-oxopropan-2-yl)-4-methoxy-1H-indole-2-carboxamide]: 100 to 1000 nM.
As for `COc1cccc2[nH]c(C(=O)N[C@@H](CCCc3ccccc3)C(=O)N[C@H](C#N)C[C@@H]3CCNC3=O)cc12` [Example 11, N—((S)-1-(((S)-1-cyano-2-((S)-2-oxopyrrolidin-3-yl)ethyl)amino)-1-oxo-5-phenylpentan-2-yl)-4-methoxy-1H-indole-2-carboxamide], the IC50 is more than 1000 nM.
The same measure for `COc1cccc2[nH]c(C(=O)N[C@@H](CCSC)C(=O)N[C@H](C#N)C[C@@H]3CCNC3=O)cc12` [Example 12, N—((S)-1-(((S)-1-cyano-2-((S)-2-oxopyrrolidin-3-yl)ethyl)amino)-4-(methylthio)-1-oxobutan-2-yl)-4-methoxy-1H-indole-2-carboxamide]: 100 to 1000 nM; for `CC(C)C[C@H](NC(=O)c1cc2ccccc2o1)C(=O)N[C@H](C#N)C[C@@H]1CCNC1=O` [Example 13, N—((S)-1-(((S)-1-cyano-2-((S)-2-oxopyrrolidin-3-yl)ethyl)amino)-4-methyl-1-oxopentan-2-yl)benzofuran-2-carboxamide]: more than 1000 nM.
Under `COc1cccc2[nH]c(C(=O)N[C@@H](CC3CCCCC3)C(=O)N[C@H](C#N)C[C@@H]3CCCNC3=O)cc12` [Example 14, N—((S)-1-(((S)-1-cyano-2-((S)-2-oxopiperidin-3-yl)ethyl)amino)-3-cyclohexyl-1-oxopropan-2-yl)-4-methoxy-1H-indole-2-carboxamide] stands less than 100 nM.
Under `N#C[C@H](C[C@@H]1CCCNC1=O)NC(=O)[C@H](CC1CCCCC1)NC(=O)c1cc2ccccc2o1` [Example 15, N—((S)-1-(((S)-1-cyano-2-((S)-2-oxopiperidin-3-yl)ethyl)amino)-3-cyclohexyl-1-oxopropan-2-yl)benzofuran-2-carboxamide] stands 100 to 1000 nM; under `COc1cccc2[nH]c(C(=O)N[C@@H](CC(C)C)C(=O)N[C@H](C#N)C[C@@H]3CCCNC3=O)cc12` [Example 16, N—((S)-1-(((S)-1-cyano-2-((S)-2-oxopiperidin-3-yl)ethyl)amino)-4-methyl-1-oxopentan-2-yl)-4-methoxy-1H-indole-2-carboxamide], less than 100 nM; under `COc1cccc2[nH]c(C(=O)N[C@@H](Cc3ccccc3)C(=O)N[C@H](C#N)C[C@@H]3CCCNC3=O)cc12` [Example 18, N—((S)-1-(((S)-1-cyano-2-((S)-2-oxopiperidin-3-yl)ethyl)amino)-1-oxo-3-phenylpropan-2-yl)-4-methoxy-1_H-indole-2-carboxamide], 100 to 1000 nM.
Turning to `COc1cccc2[nH]c(C(=O)N[C@H](C(=O)N[C@H](C#N)C[C@@H]3CCNC3=O)C(C)(C)C)cc12` [Example 19, N—((S)-1-(((S)-1-cyano-2-((S)-2-oxopyrrolidin-3-yl)ethyl)amino)-3,3-dimethyl-1-oxobutan-2-yl)-4-methoxy-1H-indole-2-carboxamide], the IC50 was more than 1000 nM.
For the compound `N#C[C@H](C[C@@H]1CCNC1=O)NC(=O)[C@H](CC1CCCCC1)NC(=O)c1cc2ccccc2o1` [Example 22, N—((S)-1-(((S)-1-cyano-2-((S)-2-oxopyrrolidin-3-yl)ethyl)amino)-3-cyclohexyl-1-oxopropan-2-yl)benzofuran-2-carboxamide], the IC50 was more than 1000 nM.
For the compound `COc1cccc2[nH]c(C(=O)N[C@@H](CSC)C(=O)N[C@H](C#N)C[C@@H]3CCNC3=O)cc12` [Example 24, N—((R)-1-(((S)-1-cyano-2-((S)-2-oxopyrrolidin-3-yl)ethyl)amino)-3-(methylthio)-1-oxopropan-2-yl)-4-methoxy-1H-indole-2-carboxamide], the IC50 lay within 100 to 1000 nM.
Consider `COc1cccc2[nH]c(C(=O)N[C@@H](CC(F)(F)F)C(=O)N[C@H](C#N)C[C@@H]3CCNC3=O)cc12` [Example 25, N—((S)-1-(((S)-1-cyano-2-((S)-2-oxopyrrolidin-3-yl)ethyl)amino)-4,4,4-trifluoro-1-oxobutan-2-yl)-4-methoxy-1H-indole-2-carboxamide], for which the IC50 was in the range of 100 to 1000 nM.

As a reminder, the IC50 is the concentration that gives 50% inhibition.

For the origin of these results see patent US20220048944A1, “FUNC[…] AS ANTIVIRAL AGENTS” (Enanta Pharmaceuticals, Inc., priority 2020, published 2022).
